From patent publication US12077486B2, “Quaternary fatty amidoamine detergents” (NOURYON CHEMICALS INTERNATIONAL B.V., priority 2018, dated 2024)

What was measured:
[1] = stabilization of a dispersion of solids in a-polar medium; conditions: over a wide range of temperatures
[2] = solubility in an a-polar medium; type: physicochemical
Procedure: Throughout this document, unless indicated differently, the weight percentages of the compositions are based on the total weight of the composition, whereby the total weight of the composition is 100 wt %. The term water-soluble is used for materials that dissolve in an amount of at least 1 g per liter of demineralized water at 25° C. Where used, the term “consisting” also embraces “consisting substantially”, but may optionally be limited to its strict meaning of “consisting entirely”. An a-polar (nonpolar) medium is herein defined as a material having a dielectric coefficient of less than 7 at 20° C. Typically it is a liquid at the temperature of use. Suitably it is a medium with a dielectric coefficient at 20° C. of less than 6.5, 6, 5.5, 5, 4.5, 4, 3.5, or 3. The dielectric constant is measured in accordance with ASTM D150. The term “substantially free” is used fora moiety that is present in an amount of less than 2% by weight. Similarly, the term “essentially” is used to denote a composition that consists for more than 95% by weight of the indicated components.

stabilization of a dispersion of solids in the dissolution [1]: perfectly stabilize
dissolution in an a-polar medium [2]: easily dissolve
Structure (SMILES): CCCCC/C=C\CCC(CCCCCCCC(=O)NCCC[N+](C)(C)C)C(CCCCCCCC)CCCCCCCCC(=O)NCCC[N+](C)(C)C (centres unmarked) [Preparation Example 1]
